# Laboratory results: PubChem BioAssay AID200 (DTP/NCI, 2004)
# “And” between values parts separate entries of the source, which are not always exact repeats. Equal entries are not always repeated. Toxic doses and inconclusive results are not listed. Where a SMILES comes first, the peptide text is derived from it. The star is where a group is joined. Cbz = O=C(OCc1ccccc1)*; For = O=C*
# System: B6C3F1 mice, B16 melanoma ip, median survival T/C
# Test: NCI In Vivo Anticancer Drug Screen. Data for tumor model B16 Melanoma (intraperitoneal) in B6C3F1 mice
# Details: endpoint: median survival time, higher = longer survival
# Method in brief: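 Mice bearing transplanted tumor were dosed with compound or vehicle, and survival was recorded. Activity is expressed as the treated-group measurement (T) divided by the vehicle control measurement (C).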
# [1] = dose: 100.0 mg/kg/injection, schedule: Q01DX009 (ip), vehicle: Klucel (hydroxypropylcellulose) (HPC)
# [2] = dose: 200.0 mg/kg/injection, schedule: Q01DX009 (ip), vehicle: Klucel (hydroxypropylcellulose) (HPC)
# [3] = dose: 400.0 mg/kg/injection, schedule: Q01DX009 (ip), vehicle: Klucel (hydroxypropylcellulose) (HPC)
# [4] = dose: 6.25 mg/kg/injection, schedule: Q01DX009 (ip), vehicle: saline
# [5] = dose: 12.5 mg/kg/injection, schedule: Q01DX009 (ip), vehicle: saline
# [6] = dose: 25.0 mg/kg/injection, schedule: Q01DX009 (ip), vehicle: Klucel (hydroxypropylcellulose) (HPC)
# [7] = dose: 25.0 mg/kg/injection, schedule: Q01DX009 (ip), vehicle: saline
# [8] = dose: 50.0 mg/kg/injection, schedule: Q01DX009 (ip), vehicle: saline
# [9] = dose: 100.0 mg/kg/injection, schedule: Q01DX009 (ip), vehicle: saline
# [10] = dose: 200.0 mg/kg/injection, schedule: Q01DX009 (ip), vehicle: saline
# [11] = dose: 400.0 mg/kg/injection, schedule: Q01DX009 (ip), vehicle: saline
# [12] = dose: 50.0 mg/kg/injection, schedule: Q01DX009 (ip), vehicle: Klucel (hydroxypropylcellulose) (HPC)
compound,measurement,setting,value
COC12C(COC(N)=O)C3=C(C(=O)C(C)=C(N)C3=O)N1CC1C2N1C (stereo unspecified),T/C,"dose: 1.0 mg/kg/injection, schedule: Q01DX009 (ip), vehicle: saline",112 % of control and 99 % of control
same,T/C,"dose: 2.0 mg/kg/injection, schedule: Q01DX009 (ip), vehicle: saline",88 % of control
same,T/C,"dose: 8.0 mg/kg/injection, schedule: Q01DX009 (ip), vehicle: saline",111 % of control and 89 % of control
CCCCC(NC(=O)C(C)NC(=O)OCc1ccccc1)C(=O)O (stereo unspecified),T/C,[1],101 % of control
same,T/C,[2],99 % of control
same,T/C,[3],94 % of control
NC(=O)Oc1cc(OC(N)=O)cc(N(CCCl)CCCl)c1,T/C,"dose: 3.12 mg/kg/injection, schedule: Q01DX009 (ip), vehicle: Klucel (hydroxypropylcellulose) (HPC)",115 % of control
same,T/C,"dose: 6.25 mg/kg/injection, schedule: Q01DX009 (ip), vehicle: Klucel (hydroxypropylcellulose) (HPC)",107 % of control
same,T/C,[4],91 % of control
same,T/C,[5],96 % of control
same,T/C,[6],170 % of control
same,T/C,[7],104 % of control
same,T/C,[8],104 % of control
same,T/C,[9],102 % of control
CCC(C)C(NC(=O)OCc1ccccc1)C(=O)NC(C(=O)O)C(C)C (stereo not drawn) (Cbz-Ile-Val-OH; configuration not given here),T/C,[1],91 % of control
same,T/C,[2],94 % of control
same,T/C,[3],94 % of control
C=C(C)[C@H]1CN[C@H](C(=O)O)[C@H]1CC(=O)O,T/C,"dose: 0.31 mg/kg/injection, schedule: Q01DX009 (ip), vehicle: saline",96 % of control
same,T/C,"dose: 0.62 mg/kg/injection, schedule: Q01DX009 (ip), vehicle: saline",100 % of control
same,T/C,"dose: 1.25 mg/kg/injection, schedule: Q01DX009 (ip), vehicle: saline",91 % of control
same,T/C,"dose: 2.5 mg/kg/injection, schedule: Q01DX009 (ip), vehicle: saline",100 % of control
same,T/C,"dose: 5.0 mg/kg/injection, schedule: Q01DX009 (ip), vehicle: saline",90 % of control
same,T/C,[4],102 % of control
same,T/C,"dose: 10.0 mg/kg/injection, schedule: Q01DX009 (ip), vehicle: saline",86 % of control
same,T/C,[5],101 % of control
same,T/C,[7],93 % of control
Cc1ccc(NN=O)nc1,T/C,"dose: 0.75 mg/kg/injection, schedule: Q01DX009 (ip), vehicle: water",114 % of control
same,T/C,"dose: 1.5 mg/kg/injection, schedule: Q01DX009 (ip), vehicle: water",120 % of control
same,T/C,"dose: 1.56 mg/kg/injection, schedule: Q01DX009 (ip), vehicle: water",112 % of control
same,T/C,"dose: 3.0 mg/kg/injection, schedule: Q01DX009 (ip), vehicle: water",120 % of control
same,T/C,"dose: 6.0 mg/kg/injection, schedule: Q01DX009 (ip), vehicle: water",124 % of control
C/C=C/c1cc2c(c(=O)o1)C(=O)[C@@H](O)[C@H](C)O2,T/C,"dose: 6.25 mg/kg/injection, schedule: Q01DX009 (ip), vehicle: saline with Tween-80",98 % of control
same,T/C,"dose: 12.5 mg/kg/injection, schedule: Q01DX009 (ip), vehicle: saline with Tween-80",103 % of control
same,T/C,"dose: 25.0 mg/kg/injection, schedule: Q01DX009 (ip), vehicle: saline with Tween-80",100 % of control
same,T/C,"dose: 50.0 mg/kg/injection, schedule: Q01DX009 (ip), vehicle: saline with Tween-80",118 % of control
same,T/C,"dose: 100.0 mg/kg/injection, schedule: Q01DX009 (ip), vehicle: saline with Tween-80",109 % of control
same,T/C,"dose: 200.0 mg/kg/injection, schedule: Q01DX009 (ip), vehicle: saline with Tween-80",103 % of control
CCc1nc(N)nc(N)c1-c1ccc(Cl)c(N=[N+]=[N-])c1,T/C,"dose: 12.5 mg/kg/injection, schedule: Q01DX009 (ip), vehicle: distilled water + Tween-80",100 % of control
same,T/C,"dose: 25.0 mg/kg/injection, schedule: Q01DX009 (ip), vehicle: distilled water + Tween-80",98 % of control and 102 % of control
same,T/C,"dose: 50.0 mg/kg/injection, schedule: Q01DX009 (ip), vehicle: distilled water + Tween-80",108 % of control (2×) and 109 % of control
same,T/C,"dose: 100.0 mg/kg/injection, schedule: Q01DX009 (ip), vehicle: distilled water + Tween-80",122 % of control
same,T/C,"dose: 200.0 mg/kg/injection, schedule: Q01DX009 (ip), vehicle: distilled water + Tween-80",157 % of control and 169 % of control
CCCCCC[C@@H](O)C/C=C\CCCCCCCC(=O)OCCO,T/C,[7],101 % of control
same,T/C,[8],110 % of control
same,T/C,"dose: 75.0 mg/kg/injection, schedule: Q01DX009 (ip), vehicle: saline",102 % of control
same,T/C,[9],122 % of control
same,T/C,"dose: 150.0 mg/kg/injection, schedule: Q01DX009 (ip), vehicle: saline",97 % of control
same,T/C,[10],101 % of control
same,T/C,"dose: 300.0 mg/kg/injection, schedule: Q01DX009 (ip), vehicle: saline",100 % of control
same,T/C,[11],103 % of control
same,T/C,"dose: 600.0 mg/kg/injection, schedule: Q01DX009 (ip), vehicle: saline",95 % of control
same,T/C,"dose: 800.0 mg/kg/injection, schedule: Q01DX009 (ip), vehicle: saline",96 % of control
same,T/C,"dose: 1200.0 mg/kg/injection, schedule: Q01DX009 (ip), vehicle: saline",96 % of control
CN(C)N=Nc1ccc2c(c1)N(C)c1ccc(Cl)cc1S2,T/C,"dose: 6.25 mg/kg/injection, schedule: Q01DX009 (ip), vehicle: other",99 % of control
same,T/C,"dose: 12.5 mg/kg/injection, schedule: Q01DX009 (ip), vehicle: other",109 % of control
same,T/C,"dose: 25.0 mg/kg/injection, schedule: Q01DX009 (ip), vehicle: other",114 % of control
same,T/C,"dose: 50.0 mg/kg/injection, schedule: Q01DX009 (ip), vehicle: other",110 % of control
same,T/C,"dose: 100.0 mg/kg/injection, schedule: Q01DX009 (ip), vehicle: other",114 % of control
C[C@H]1CCC/C=C/[C@@H]2C[C@H](O)C[C@H]2[C@H](O)/C=C/C(=O)O1,T/C,"dose: 12.5 mg/kg/injection, schedule: Q01DX009 (ip), vehicle: Klucel (hydroxypropylcellulose) (HPC)",89 % of control
same,T/C,[6],91 % of control
same,T/C,[12],91 % of control
C[PH+](C)C.C[PH+](C)C.[Au],T/C,"dose: 0.31 mg/kg/injection, schedule: Q01DX009 (ip), vehicle: Klucel (hydroxypropylcellulose) (HPC)",115 % of control
same,T/C,"dose: 0.62 mg/kg/injection, schedule: Q01DX009 (ip), vehicle: Klucel (hydroxypropylcellulose) (HPC)",117 % of control
same,T/C,"dose: 1.25 mg/kg/injection, schedule: Q01DX009 (ip), vehicle: Klucel (hydroxypropylcellulose) (HPC)",114 % of control
same,T/C,"dose: 2.5 mg/kg/injection, schedule: Q01DX009 (ip), vehicle: Klucel (hydroxypropylcellulose) (HPC)",112 % of control
O=c1cc(-c2ccccc2)nc(N[N+](=O)[O-])[nH]1,T/C,"dose: 11.0 mg/kg/injection, schedule: Q01DX009 (ip), vehicle: Klucel (hydroxypropylcellulose) (HPC)",91 % of control
same,T/C,"dose: 22.0 mg/kg/injection, schedule: Q01DX009 (ip), vehicle: Klucel (hydroxypropylcellulose) (HPC)",100 % of control
same,T/C,"dose: 44.0 mg/kg/injection, schedule: Q01DX009 (ip), vehicle: Klucel (hydroxypropylcellulose) (HPC)",105 % of control
same,T/C,"dose: 88.0 mg/kg/injection, schedule: Q01DX009 (ip), vehicle: Klucel (hydroxypropylcellulose) (HPC)",88 % of control
CCOC(=O)C1=C(C)NC(C)=C(C(=O)OCC)C1C,T/C,[9],94 % of control
same,T/C,[10],95 % of control
same,T/C,[11],91 % of control
O=C(NC(CSSCC(NC(=O)OCc1ccccc1)C(=O)O)C(=O)O)OCc1ccccc1 (stereo unspecified),T/C,[6],104 % of control
same,T/C,[12],94 % of control
same,T/C,[1],102 % of control
same,T/C,[2],88 % of control
C[N+](C)=C1C=CC(=C2C=CSC=C2)C=C1,T/C,"dose: 3.0 mg/kg/injection, schedule: Q01DX009 (ip), vehicle: saline",115 % of control
same,T/C,[4],116 % of control
COc1cccc2c1C(=O)c1c(O)c3c(c(O)c1C2=O)C[C@@](O)(C(C)=O)C[C@@H]3OC1CC(N2CCCCC2)C(O)C(C)O1 (stereo partly specified),T/C,"dose: 0.78 mg/kg/injection, schedule: Q01DX001 (ip), vehicle: water",105 % of control
same,T/C,"dose: 1.56 mg/kg/injection, schedule: Q01DX001 (ip), vehicle: water",115 % of control and 121 % of control
same,T/C,"dose: 3.12 mg/kg/injection, schedule: Q01DX001 (ip), vehicle: water",116 % of control and 121 % of control
CSCCC(NC=O)C(=O)NC(C(=O)O)C(C)C (stereo not drawn) (For-Met-Val-OH; configuration not given here),T/C,[6],101 % of control
same,T/C,[12],101 % of control
same,T/C,[1],107 % of control
same,T/C,[2],105 % of control
same,T/C,[3],98 % of control
